Measured values taken from patent publication US9220269B2, “Use of 6-substituted 9-halogenalkyl purines for regulation of growth and development of whole plants, plant cells and plant organs; novel 6-substituted 9-halogenalkyl purines” (UNIVERZITA PALACKEHO V OLOMOUCI, priority 2010, dated 2015).

Legend:
[1] = test system: cytokinin-dependent tobacco callus Nicotiana tabacum L. cv. Wisconsin 38; assay: cytokinin-dependent tobacco callus bioassay (plant cell division); type: cell-based; details: for activity (%) [10^−5 mol. l^−1 iP = 100%] / activity (%) [10^−6 mol. l^−1 Kin = 100%]: at the concentration with highest activity; for activity (%) [10^−5 mol. l^−1 iP = 100%]: relative to 10^−5 M iP; for activity (%) [10^−6 mol. l^−1 Kin = 100%]: relative to 10^−6 M Kin; for concentration with highest activity: growth of tobacco callus, fresh weight after four weeks; for effect on callus growth (cell proliferation) in high concentrations: concentrations exceeding 10 μM, up to 100 μM, FIG. 1
Description: Stimulatory effect of newly prepared derivatives was tested using cytokinin-dependent tobacco callus. The cytokinin-dependent tobacco callus Nicotiana tabacum L. cv. Wisconsin 38 was maintained at 25° C. in darkness on modified MS medium, containing per 1 liter: 4 μmol of nicotinic acid, 2.4 μmol of pyridoxine hydrochloroide, 1.2 μmol of thiamine, 26.6 μmol of glycine, 1.37 μmol of glutamine, 1.8 μmol of myo-inositol, 30 g of sucrose, 8 g of agar, 5.37 μmol of NAA and 0.5 μmol of the compound tested. Subcultivation was carried out every three weeks. Fourteen days before the bioassay, the callus tissue was transferred to the media without the compound tested. The biological activity was determined from the increase of the fresh callus weight after four weeks of cultivation. Six replicates were prepared for each concentration of the compound tested and the entire test was repeated twice. […] The compounds to be tested were dissolved in dimethylsulfoxide (DMSO) and the solution brought up to 10^−3 M with distilled water. […] From the obtained data, the concentration with the highest activity was selected for each compound tested. Relative activity of the compound at this concentration was calculated (Table 2). The activity obtained for 10^−6 M of the N9-unsubstituted parent cytokinins Kin and 10^−5 M iP, respectively, was postulated as 100% biological activity. […] For comparison, compounds bearing halogenbutyl substituent in position 9 were prepared and tested.
Cytokinins are known to have stimulatory effects on cell proliferation in their optimal concentrations, however typically in the concentrations exceeding 10 μM their effect on cell division turns into inhibitory (Holub et al., Plant Growth Regul. 26, 109-115, 1998). Therefore the effect of the high concentrations of the newly prepared derivatives was tested using cytokinin-dependent tobacco callus described in Example 6. The novel compounds 1, 2 and 4 were tested in high concentrations (1-100 μM) and the activities were compared with activities of their N9-unsubstituted parent cytokinins.

[2] = test system: Amaranthus caudatus var. atropurpurea explants (cotyledons and hypocotyl); assay: Amaranthus bioassay (betacyanin formation); details: for activity (%) [10^−5 mol. l^−1 iP = 100%]: at the concentration with highest activity; for concentration with highest activity: betacyanin formation, 48 h in darkness
Description: The standard Amaranthus bioassay with several modifications was used to study cytokinin activity of the novel compounds. The seeds of Amaranthus caudatus var. atropurpurea were surface-sterilised in 10% (w/v) N-chlorobenzenesulfonamide for 10 min and washed 5 times with deionized water. They were placed in 14 cm Petri dishes containing paper tissues saturated with deionized water. After 72 h of cultivation at 25° C. in darkness, the roots of the seedlings were cut off. The explants, consisting of two cotyledons and hypocotyl, were placed in 5 cm Petri dishes onto two layers of filter paper soaked with 1 ml of the incubation medium containing 10 μmol of Na2HPO4—KH2PO4, pH 6.8, 5 μmol of tyrosine and the cytokinin to be tested. There were 20 explants per dish. The procedure was carried out under a green safe light in a darkroom. After 48 h of incubation at 25° C. in darkness, betacyanin was extracted by freezing the explants in 4 ml […] acetic acid. The concentration of betacyanin was determined from the absorbances at 537 nm and 620 nm as follows: ΔA=A537 nm−A620 nm. The values ΔA were plotted against the concentration tested, are means of five replicates and the entire test was repeated twice. […] The compounds to be tested were dissolved in dimethylsulfoxide (DMSO) and the solution brought up to 10^−3 M with distilled water. […] The activity obtained for 10^−5 M iP was postulated as 100%.

[3] = test system: detached leaf segments of Triticum aestivum cv. Hereward; assay: senescence bioassay on detached wheat leaf segments in dark conditions (chlorophyll retention); details: for concentration with highest activity: 96 h, 25° C., chlorophyll A665; for activity (%) [10^−4 mol. l^−1 Kin = 100%]: at the concentration with highest activity
Description: (§1) Seeds of winter wheat, Triticum aestivum cv. Hereward, were washed under running water for 24 hours and then sown on vermiculite soaked with Knop's solution. They were placed in the growth chamber at 25° C. with a 16/8 h light period at 50 μmol·m^−2·s^−1. After 7 days, the first leaf was fully developed and the second leaf had started to grow. A tip section of the first leaf, approximately 35 mm long, was removed from 5 seedlings and trimmed slightly to a combined weight of 100 mg. The basal ends of the five leaf tips were placed in the wells of a microtiter polystyrene plate containing 150 μL of the tested derivative solution each. The entire plate was inserted into a plastic box lined with paper tissues soaked in distilled water to prevent leaf sections from drying out. After 96 h incubation in the dark at 25° C., the leaves were removed and chlorophyll extracted by heating at 80° C. for 10 min in 5 mL of 80% ethanol (v/v). The sample volume was then restored to 5 mL by the addition of 80% ethanol (v/v). The absorbance of the extract was recorded at 665 nm. In addition, chlorophyll extracts from fresh leaves and leaf tips incubated in deionised water were measured. The results are means of five replicates and the entire test was repeated twice. […] The compounds to be tested were dissolved in dimethylsulfoxide (DMSO) and the solution brought up to 10^−3M with distilled water. […] The activity obtained for 10^−4 M Kin was postulated as 100%.

[4] = test system: detached leaf segments of Triticum aestivum cv. Hereward; assay: senescence bioassay on detached wheat leaf segments in light conditions (chlorophyll retention); details: for concentration with highest activity: constant light 100 μmol·m^−2·s^−1, 22° C.; for activity (%) [10^−4 mol. l^−1 Kin = 100%]: light, at the concentration with highest activity
Description: as §1
The ability of the novel compounds to retard chlorophyll degradation in detached wheat leaves was tested also in the light conditions. The experiment was performed as described in Example 7 with modifications as follows—the incubation of the leaves with the compounds was done in the constant light (100 μmol·m^−2·s^−1) at 22° C.

[5] = test system: Zea mays cv. CELLUX seedlings; assay: root growth and development of maize seedlings in hydroponics; type: in vivo; details: FIG. 3
Description: To investigate in vivo effect of the new derivatives on the root growth and development, maize seeds (Zea mays cv. CELLUX, Morseva, Czech Republic) were imbibed in tap water and germinated in dark on a wetted filter paper. After 2 days, the germinated seedlings were transferred to aerated hydroponic tanks filled with Hoagland's nutrient solution (fifteens per one liter of Hoagland solution). The plants were grown in a chamber with 16 hrs light (250 μm-2 s-1) at 27° C. and 8 hrs dark period at 20° C. The nutrient solution was supplemented with 5 μM and 10 μM concentration of 6-furfurylamino-9-(2-chloroethyl)purine or 5 μM cytokinin kinetin (Kin). All solutions used for cytokinin treatment including negative control contained DMSO in final concentration of 0.01%.

[6] = test system: VP14 gene; assay: expression of VP14 stress gene in intact maize plants (RT-PCR); type: in vivo, Zea mays; details: 5 μM; for Relative amount of transcripts, leaf / Relative amount of transcripts, root: 3 days, related to untreated control = 1; for effect on VP14 expression / stress response: in words
Description: Abscisic acid has a direct effect on up-regulation of genes involved in stress responses (Tan et al., 1997, Proc Natl Acad Sci USA, 94, 12235-40). 5-days-old maize seedlings were carefully transferred from substrate to nutrient solution supplemented with tested compound in 5 μM concentration and were cultivated for another 3 days. Transcript copy number of VP14 gene was determined in roots and leaves of treated plants independently by method of reverse transcription polymerase chain reaction.

[7] = test system: membrane lipid peroxidation in detached leaves of Triticum aestivum cv. Hereward; assay: membrane lipid peroxidation (MDA, TBA method) in detached wheat leaves during dark senescence
Description: A typical symptom associated with senescence as a direct consequence of increased reactive oxygen species is lipid peroxidation. Therefore the levels of MDA, a decomposition product of lipid peroxidation, were measured in detached wheat leaves that were exposed to the prepared novel derivatives and kinetin for four days in the dark as described in Example 7. MDA levels were measured using a thiobarbituric acid (TBA) method. In detail, 100 mg of fresh plant material was homogenized by high speed shaking in a ball mill (MM301, Retsch, Germany) with 1 mL of 80% methanol. The crude extract was centrifuged at 10,000×g for 5 min, and 100 μL aliquot of supernatant was vortexed with 100 μL of 0.5% (w/v) TBA containing 0.1% (w/v) trichloroacetic acid, and the resulting solution was then incubated for 30 min at 95° C. The samples were quickly cooled on ice and recentrifuged for 5 min at 1000×g. The absorbance of supernatant was measured at 532 nm with background subtraction at 600 nm and the amount of MDA-TBA complex was calculated from the coefficient of absorbance 155 mM^−1 cm^−1.

CC(C)=CCNc1ncnc2c1ncn2CCBr [Compound 3, 6-[(3-methylbut-2-en-1-yl)amino]-9-(2-bromoethyl)purine]
activity (%) [10^−5 mol. l^−1 iP = 100%] [1]: 103 (±4) % | activity (%) [10^−5 mol. l^−1 iP = 100%] [2]: 116 (±9) % | concentration with highest activity [2]: 10^−4 mol. l^−1

Oc1cccc(CNc2ncnc3c2ncn3CCCl)c1 [Compound 47]
activity (%) [10^−6 mol. l^−1 Kin = 100%] [1]: 111 (±2) % | concentration with highest activity [1]: 10^−5 mol. l^−1 | concentration with highest activity [3]: 10^−4 mol. l^−1 | activity (%) [10^−4 mol. l^−1 Kin = 100%] [3]: 111 (±9) %

BrCCn1cnc2c(NCc3ccco3)ncnc21 [Compound 2, 6-furfurylamino-9-(2-bromoethyl)purine]
activity (%) [10^−6 mol. l^−1 Kin = 100%] [1]: 110 (±3) % | concentration with highest activity [3]: 10^−4 mol. l^−1 | activity (%) [10^−4 mol. l^−1 Kin = 100%] [3]: 102 (±3) % | concentration with highest activity [4]: 10^−4 mol. l^−1 | activity (%) [10^−4 mol. l^−1 Kin = 100%] [4]: 121 (±8) %

C/C(=C\C(C)Nc1ncnc2c1ncn2CCCl)CO (stereo not drawn) [Compound 136, 6-(E)-(4-hydroxy-1,3-dimethylbut-2-en-1-ylamino)-9-(2-chloroethyl)purine]
activity (%) [10^−6 mol. l^−1 Kin = 100%] [1]: 115 (±7) % | concentration with highest activity [3]: 10^−4 mol. l^−1 | activity (%) [10^−4 mol. l^−1 Kin = 100%] [3]: 114 (±4) %

COc1cccc(CNc2ncnc3c2ncn3CCCl)c1 [Compound 38]
activity (%) [10^−6 mol. l^−1 Kin = 100%] [1]: 106 (±5) % | concentration with highest activity [1]: 10^−5 mol. l^−1 | concentration with highest activity [3]: 10^−4 mol. l^−1 | activity (%) [10^−4 mol. l^−1 Kin = 100%] [3]: 116 (±7) %

CC(C)=CCNc1ncnc2nc[nH]c12 [6-(3-methylbut-2-en-1-yl)aminopurine, reference compound]
activity (%) [10^−5 mol. l^−1 iP = 100%] [1]: 100% | effect on callus growth (cell proliferation) in high concentrations [1]: inhibited strongly the callus growth | activity (%) [10^−5 mol. l^−1 iP = 100%] [2]: 100% | concentration with highest activity [2]: 10^−5 mol. l^−1

CC(C)=CCNc1ncnc2c1ncn2CCCl [Compound 4, 6-[(3-methylbut-2-en-1-yl)amino]-9-(2-chloroethyl)purine]
activity (%) [10^−5 mol. l^−1 iP = 100%] [1]: 112 (±7) % | effect on callus growth (cell proliferation) in high concentrations [1]: still kept their stimulatory effect | activity (%) [10^−5 mol. l^−1 iP = 100%] [2]: 128 (±11) % | concentration with highest activity [2]: 10^−4 mol. l^−1

ClCCCCn1cnc2c(NCc3ccco3)ncnc21 [6-furfurylamino-9-(4-chlorobutyl)purine, reference compound]
activity (%) [10^−6 mol. l^−1 Kin = 100%] [1]: 62 (±7) % | concentration with highest activity [3]: 10^−4 mol. l^−1 | activity (%) [10^−4 mol. l^−1 Kin = 100%] [3]: 72 (±13) % | concentration with highest activity [4]: 10^−4 mol. l^−1 | activity (%) [10^−4 mol. l^−1 Kin = 100%] [4]: 119 (±6) %

c1coc(CNc2ncnc3nc[nH]c23)c1 [6-furfurylaminopurine (Kin), 6-furfurylaminopurine, reference compound]
root and shoot phenotype of maize plants ([5]; 5 μM in nutrient solution): dramatic thickening and shortening of primary root with no lateral root formation | activity (%) [10^−6 mol. l^−1 Kin = 100%] [1]: 100% | effect on callus growth (cell proliferation) in high concentrations [1]: inhibited strongly the callus growth | Relative amount of transcripts, leaf [6]: 16.3 (±4.0) | Relative amount of transcripts, root [6]: 3.4 (±0.8) | effect on VP14 expression / stress response [6]: significantly increases VP14 expression in both root and leaves of maize | concentration with highest activity [3]: 10^−4 mol. l^−1 | activity (%) [10^−4 mol. l^−1 Kin = 100%] [3]: 100% | concentration with highest activity [4]: 10^−4 mol. l^−1 | activity (%) [10^−4 mol. l^−1 Kin = 100%] [4]: 100%

BrCCCCn1cnc2c(NCc3ccco3)ncnc21 [6-furfurylamino-9-(4-bromobutyl)purine, reference compound]
activity (%) [10^−6 mol. l^−1 Kin = 100%] [1]: 45 (±8) % | concentration with highest activity [3]: 10^−4 mol. l^−1 | activity (%) [10^−4 mol. l^−1 Kin = 100%] [3]: 1.2 (±2) % | concentration with highest activity [4]: 10^−4 mol. l^−1 | activity (%) [10^−4 mol. l^−1 Kin = 100%] [4]: 60 (±16) %

ClCCn1cnc2c(NCc3ccco3)ncnc21 [Compound 1, 6-furfurylamino-9-(2-chloroethyl)purine]
root and shoot phenotype of maize plants ([5]; 5 μM in nutrient solution): almost identical to DMSO treated negative control | root and shoot phenotype of maize plants ([5]; 10 μM in nutrient solution): only slightly reduced length of primary and lateral roots | activity (%) [10^−6 mol. l^−1 Kin = 100%] [1]: 120 (±6) % | effect on callus growth (cell proliferation) in high concentrations [1]: still kept their stimulatory effect | Relative amount of transcripts, leaf [6]: 1.1 (±0.3) | Relative amount of transcripts, root [6]: 0.4 (±0.1) | effect on VP14 expression / stress response [6]: does not induce any stress response | concentration with highest activity [3]: 10^−4 mol. l^−1 | activity (%) [10^−4 mol. l^−1 Kin = 100%] [3]: 120 (±15) % | level of membrane lipid peroxidation reduced to ([7]; dark senescence, compared to untreated control): 67% | MDA ([7]; detached wheat leaves, four days in the dark, untreated control 18.9 (±2.2)): 12.8 (±1.0) nmol/g FW | concentration with highest activity [4]: 10^−5 mol. l^−1 | activity (%) [10^−4 mol. l^−1 Kin = 100%] [4]: 116 (±7) %
